From patent US20250074919A1, “Heteroaryl compounds as inhibitors of irak4, compositions and applications thereof” (Accro Bioscience (HK) Limited, priority 2021, published 2025) come the findings set out here.

SMILES strings stand for the structures.

Sequence of IRAK4 (Q9NWZ3 whole entry): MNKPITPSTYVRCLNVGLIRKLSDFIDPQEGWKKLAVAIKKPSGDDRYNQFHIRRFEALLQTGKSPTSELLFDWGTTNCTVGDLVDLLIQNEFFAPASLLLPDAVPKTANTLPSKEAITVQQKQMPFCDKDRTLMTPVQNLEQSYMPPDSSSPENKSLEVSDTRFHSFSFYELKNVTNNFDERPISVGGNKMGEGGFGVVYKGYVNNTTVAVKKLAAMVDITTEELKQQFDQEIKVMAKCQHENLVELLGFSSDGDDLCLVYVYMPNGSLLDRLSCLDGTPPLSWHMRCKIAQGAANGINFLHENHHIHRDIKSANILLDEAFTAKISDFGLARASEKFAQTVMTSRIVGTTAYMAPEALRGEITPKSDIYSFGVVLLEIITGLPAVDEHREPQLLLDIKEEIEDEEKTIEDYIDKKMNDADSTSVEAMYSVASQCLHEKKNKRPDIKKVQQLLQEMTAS

For one assay, the target named is IRAK4 (Homo sapiens (Human), UniProt Q9NWZ3). The assay is described as follows: Screening the compounds against IRAK4 with ATP (Caliper, FAM-labeled peptide). In kind it is biochemical. The conditions noted are these: IRAK4 kinase inhibition relative to CA4948. The protocol:
Prepare Ix kinase base buffer and stop buffer for testing kinases: (1) base buffer: 50 mM HEPES (pH 7.5), 0.0015% Brij-35; (2) stop buffer: 100 mM HEPES (pH 7.5), 0.015% Brij-35, 0.2% Coating Reagent #3, 50 mM EDTA. Then prepare compounds for testing: Dilute the compound to 50× of the final desired highest inhibitor concentration in reaction by 100% DMSO. Transfer 100 μL of this compound dilution to a well in a 96-well plate (source plate).
Serially dilute the compounds by 3-fold for a total of 10 points. Transfer 10 μL of the compound from the source plate to a new 96-well plate (intermediate plate) and add 90 μL of Ix kinase buffer. Shake the mixture on the intermediate plate for 10 min. Transfer 5 μL of each well from the 96-well intermediate plate to a 384-well plate in duplicates. Add 10 μL of 2.5× enzyme solution to each well of the 384-well assay plate and incubate at room temperature for 10 min. Add 10 μL, of 2.5×FAM-labeled peptide and ATP solution and incubate at 28° C. for a period of time. Finally stop the reaction by adding 30 μL of stop buffer and collect data on Caliper to obtain the IC50.
With `Cn1cc(-c2cccc(NC(=O)c3cc4oc(N5CCOCC5)nc4nc3N3CCC4(CCO4)CC3)n2)cn1` [Compound A26, N-(6-(1-Methyl-1H-pyrazol-4-yl)pyridin-2-yl)-2-morpholino-5-(1-oxa-7-azaspiro[3.5]nonan-7-yl)oxazolo[4,5-b]pyridine-6-carboxamide], the “activity, times better than that of the positive control compound CA4948” value (“activity, times better than that” below) is “more than 25 times”.
As for `Cn1cc(-c2cccc(NC(=O)c3cc4oc(N5CCOCC5)nc4nc3N3CCC(C)(O)CC3)n2)cn1` [Compound A25, 5-(4-Hydroxy-4-methylpiperidin-1-yl)-N-(6-(1-methyl-1H-pyrazol-4-yl)pyridin-2-yl)-2-morpholinooxazolo[4,5-b]pyridine-6-carboxamide], the “activity, times better than that” value was “more than 10 times”.
Turning to `COc1nc2nc(N3CCOCC3)oc2cc1C(=O)Nc1cccc(-c2cnn(C)c2)n1` [Compound A54, 5-Methoxy-N-(6-(1-methyl-1H-pyrazol-4-yl)pyridin-2-yl)-2-morpholinooxazolo[4,5-b]pyridine-6-carboxamide], the “activity, times better than that” value was “more than 5 times”.

The assay is the same for the next values; noted with them: read-out: IC50 (nM) (10 μM ATP).
Turning to `COC1CCN(c2nc3nc(N4CCN(CCO)CC4)oc3cc2C(=O)Nc2cccc(-c3cnn(C)c3)n2)CC1` [Compound A57, 2-(4-(2-Hydroxyethyl)piperazin-1-yl)-5-(4-methoxypiperidin-1-yl)-N-(6-(1-methyl-1H-pyrazol-4-yl)pyridin-2-yl)oxazolo[4,5-b]pyridine-6-carboxamide], the IC50 – broadly, the concentration that gives 50% inhibition – came to 5.1 nM.
Consider `Cn1cc(-c2cccc(NC(=O)c3cc4oc(N5CCOCC5)nc4nc3N3CCC4(CCO4)CC3)n2)cn1` [Compound A26, N-(6-(1-Methyl-1H-pyrazol-4-yl)pyridin-2-yl)-2-morpholino-5-(1-oxa-7-azaspiro[3.5]nonan-7-yl)oxazolo[4,5-b]pyridine-6-carboxamide], for which the 50% inhibitory concentration (IC50) was 4.2 nM.

Still in this assay, the particulars now being: read-out: IC50 (nM) (10 μM ATP); IRAK4 kinase, 10 μM ATP.
With `COC1CCN(c2nc3nc(N4CCN(C)CC4)oc3cc2C(=O)Nc2cccc(-c3cnn(C)c3)n2)CC1` [Compound A52, 5-(4-Methoxypiperidin-1-yl)-N-(6-(1-methyl-1H-pyrazol-4-yl)pyridin-2-yl)-2-(4-methylpiperazin-1-yl)oxazolo[4,5-b]pyridine-6-carboxamide], the IC50 worked out at 5.1 nM.
The same measure, in the same setting: then `CN1CC(Oc2nc3c(cc2C(=O)Nc2cccc(-c4cnn(C)c4)n2)CC(C)(C)O3)C1` [Compound B31, 2,2-Dimethyl-N-(6-(1-methyl-1H-pyrazol-4-yl)pyridin-2-yl)-6-((1-methylazetidin-3-yl)oxy)-2,3-dihydrofuro[2,3-b]pyridine-5-carboxamide], with 176 nM; and `N#Cc1cccc(NC(=O)c2cc3oc(N4CCOCC4)nc3nc2N2CCC(O)CC2)n1` [Compound A42, N-(6-Cyanopyridin-2-yl)-5-(4-hydroxypiperidin-1-yl)-2-morpholinooxazolo[4,5-b]pyridine-6-carboxamide], with 87 nM; and `CN1CCN(c2nc3nc(N4CCC(C)(O)CC4)c(C(=O)Nc4cccc(-c5cnn(C)c5)n4)cc3o2)CC1` [Compound A59, 5-(4-Hydroxy-4-methylpiperidin-1-yl)-N-(6-(1-methyl-1H-pyrazol-4-yl)pyridin-2-yl)-2-(4-methylpiperazin-1-yl)oxazolo[4,5-b]pyridine-6-carboxamide], with 6.6 nM.
For `COc1ncccc1NC(=O)c1cc2oc(N3CCOCC3)nc2nc1N1CCC(O)CC1` [Compound A45, 5-(4-Hydroxypiperidin-1-yl)-N-(2-methoxypyridin-3-yl)-2-morpholinooxazolo[4,5-b]pyridine-6-carboxamide], the concentration for half-maximal inhibition (IC50) came to 131 nM.
Consider `COc1cccc(NC(=O)c2cc3oc(N4CCOCC4)nc3nc2N2CCC(OC)CC2)n1` [Compound A46, 5-(4-Methoxypiperidin-1-yl)-N-(6-methoxypyridin-2-yl)-2-morpholinooxazolo[4,5-b]pyridine-6-carboxamide], for which the IC50 was found to be 179 nM.
Turning to `Cn1cc(-c2cccc(NC(=O)c3cc4oc(N5CCOCC5)nc4nc3N3CC(O)(C4CC4)C3)n2)cn1` [Compound A10, 5-(3-Cyclopropyl-3-hydroxyazetidin-1-yl)-N-(6-(1-methyl-1H-pyrazol-4-yl)pyridin-2-yl)-2-morpholinooxazolo[4,5-b]pyridine-6-carboxamide], the IC50 was 122 nM.
As for `Cn1cc(-c2cccc(NC(=O)c3cc4c(nc3OC3CNC3)OC(C)(C)C4)n2)cn1` [Compound B30, 6-(Azetidin-3-yloxy)-2,2-dimethyl-N-(6-(1-methyl-1H-pyrazol-4-yl)pyridin-2-yl)-2,3-dihydrofuro[2,3-b]pyridine-5-carboxamide], the IC50 was found to be 170 nM.
Regarding `CC(Oc1nc2c(cc1C(=O)Nc1cccc(-c3cnn(C)c3)n1)CC(C)(C)O2)C1CC1` (stereo not drawn) [Compound B26, 6-(1-Cyclopropylethoxy)-2,2-dimethyl-N-(6-(1-methyl-1H-pyrazol-4-yl)pyridin-2-yl)-2,3-dihydrofuro[2,3-b]pyridine-5-carboxamide], the IC50 is 13 nM.
The same measure, in the same setting: then `Cn1cc(-c2cccc(NC(=O)c3cc4c(nc3OC3CCNC3)OC(C)(C)C4)n2)cn1` (stereo not drawn) [Compound B22, 2,2-Dimethyl-N-(6-(1-methyl-1H-pyrazol-4-yl)pyridin-2-yl)-6-(pyrrolidin-3-yloxy)-2,3-dihydrofuro[2,3-b]pyridine-5-carboxamide], with 354 nM; and `Cn1cc(-c2cccc(NC(=O)c3cc4c(nc3OCC3CC3)OC(C)(C)C4)n2)cn1` [Compound B24, 6-(Cyclopropylmethoxy)-2,2-dimethyl-N-(6-(1-methyl-1H-pyrazol-4-yl)pyridin-2-yl)-2,3-dihydrofuro[2,3-b]pyridine-5-carboxamide], with 11 nM.
On to `Cn1cc(-c2cccc(NC(=O)c3cc4c(nc3O)OC(C)(C)C4)n2)cn1` [Compound B34], for which the 50% inhibitory concentration (IC50) amounted to 243 nM.
With `Cn1cc(-c2cccc(NC(=O)c3cc4c(nc3N3CCC5(CCO5)CC3)OC(C)(C)C4)n2)cn1` [Compound B6, 2,2-Dimethyl-N-(6-(1-methyl-1H-pyrazol-4-yl)pyridin-2-yl)-6-(1-oxa-7-azaspiro[3.5]nonan-7-yl)-2,3-dihydrofuro[2,3-b]pyridine-5-carboxamide], the IC50 came to 5.9 nM.
In the case of `COc1ncccc1NC(=O)c1cc2oc(N3CCOCC3)nc2nc1N1CCC(OC)CC1` [Compound A50, 5-(4-Methoxypiperidin-1-yl)-N-(2-methoxypyridin-3-yl)-2-morpholinooxazolo[4,5-b]pyridine-6-carboxamide], the 50% inhibitory concentration (IC50) worked out at 98 nM.
Regarding `Cn1cc(-c2cccc(NC(=O)c3cc4c(nc3OC3CCC3)OC(C)(C)C4)n2)cn1` [Compound B14, 6-Cyclobutoxy-2,2-dimethyl-N-(6-(1-methyl-1H-pyrazol-4-yl)pyridin-2-yl)-2,3-dihydrofuro[2,3-b]pyridine-5-carboxamide], the IC50 amounted to 6.1 nM.
Take `Cn1cc(-c2cccc(NC(=O)c3cc4oc(N5CCOCC5)nc4nc3N3CC4(C3)CC(F)(F)C4)n2)cn1` [Compound A15, 5-(6,6-Difluoro-2-azaspiro[3.3]heptan-2-yl)-N-(6-(1-methyl-1H-pyrazol-4-yl)pyridin-2-yl)-2-morpholinooxazolo[4,5-b]pyridine-6-carboxamide]: the IC50 was found to be 244 nM.
With `Cn1cc(-c2cccc(NC(=O)c3cc4oc(N5CCNCC5)nc4nc3N3CCC(C)(O)CC3)n2)cn1` [Compound A56, 5-(4-Hydroxy-4-methylpiperidin-1-yl)-N-(6-(1-methyl-1H-pyrazol-4-yl)pyridin-2-yl)-2-(piperazin-1-yl)oxazolo[4,5-b]pyridine-6-carboxamide], the concentration for half-maximal inhibition (IC50) turned out to be 7.8 nM.
Turning to `Cn1cc(-c2cccc(NC(=O)c3cc4oc(N5CCOCC5)nc4nc3N3CCC(C)(O)CC3)n2)cn1` [Compound A25, 5-(4-Hydroxy-4-methylpiperidin-1-yl)-N-(6-(1-methyl-1H-pyrazol-4-yl)pyridin-2-yl)-2-morpholinooxazolo[4,5-b]pyridine-6-carboxamide], the IC50 was found to be 8.6 nM.
As for `Cn1cc(-c2cccc(NC(=O)c3cc4c(nc3OC3COC3)OC(C)(C)C4)n2)cn1` [Compound B16, 2,2-Dimethyl-N-(6-(1-methyl-1H-pyrazol-4-yl)pyridin-2-yl)-6-(oxetan-3-yloxy)-2,3-dihydrofuro[2,3-b]pyridine-5-carboxamide], the IC50 amounted to 11 nM.
On to `COc1nc2nc(N3CCOCC3)oc2cc1C(=O)Nc1cccc(-c2cnn(C)c2)n1` [Compound A54, 5-Methoxy-N-(6-(1-methyl-1H-pyrazol-4-yl)pyridin-2-yl)-2-morpholinooxazolo[4,5-b]pyridine-6-carboxamide], for which the IC50 came out at 21 nM.
As for `Cn1cc(-c2cccc(NC(=O)c3cc4c(nc3OC3CCCC3)OC(C)(C)C4)n2)cn1` [Compound B15, 6-(Cyclopentyloxy)-2,2-dimethyl-N-(6-(1-methyl-1H-pyrazol-4-yl)pyridin-2-yl)-2,3-dihydrofuro[2,3-b]pyridine-5-carboxamide], the IC50 amounted to 5.6 nM.
Turning to `CN(C)C1CCN(c2nc3nc(N4CCOCC4)oc3cc2C(=O)Nc2cccc(-c3cnn(C)c3)n2)CC1` [Compound A23, 5-(4-(Dimethylamino)piperidin-1-yl)-N-(6-(1-methyl-1H-pyrazol-4-yl)pyridin-2-yl)-2-morpholinooxazolo[4,5-b]pyridine-6-carboxamide], the IC50 is 425 nM.
For the compound `CN1CCC(Oc2nc3c(cc2C(=O)Nc2cccc(-c4cnn(C)c4)n2)CC(C)(C)O3)C1` (stereo not drawn) [Compound B21, 2,2-Dimethyl-N-(6-(1-methyl-1H-pyrazol-4-yl)pyridin-2-yl)-6-((1-methylpyrrolidin-3-yl)oxy)-2,3-dihydrofuro[2,3-b]pyridine-5-carboxamide], the half-maximal inhibitory concentration (IC50) came out at 75 nM.
As for `Cn1cc(-c2cccc(NC(=O)c3cc4c(nc3N3CCNC5(CC5)C3)OC(C)(C)C4)n2)cn1` [Compound B8, 2,2-Dimethyl-N-(6-(1-methyl-1H-pyrazol-4-yl)pyridin-2-yl)-6-(4,7-diazaspiro[2.5]octan-7-yl)-2,3-dihydrofuro[2,3-b]pyridine-5-carboxamide], the IC50 amounted to 224 nM.
For the compound `CCOc1nc2c(cc1C(=O)Nc1cccc(-c3cnn(C)c3)n1)CC(C)(C)O2` [Compound B12, 6-Ethoxy-2,2-dimethyl-N-(6-(1-methyl-1H-pyrazol-4-yl)pyridin-2-yl)-2,3-dihydrofuro[2,3-b]pyridine-5-carboxamide], the IC50 turned out to be 9.2 nM.
